In patent US9730938B2, “Bruton's tyrosine kinase inhibitor combinations and uses thereof” (Pharmacyclics LLC, priority 2014, dated 2017):

What was measured:
ABC-DLBCL cells = settings: Ferch et al. 2009; Hailfinger et al. 2009; cited from earlier work
Jeko cells = assay: 3-day CellTiter Glow combination study in Jeko cells with wild-type or mutant CARD11; assay type: cell-based; settings: FIG. 6
Protocol: (§1) Jeko cells, a MCL cell line, and OCI-Ly3, a DLBCL cell line, were used for this experiment.
(§2) In summary, 10,000 cells were plated into 96-well plates and treated with different concentrations of inhibitors. 3 days later, CellTiter Glow reagent was added into the wells and the luminescent signals were measured.

OCI-Ly3 cells = assay: 3-day CellTiter Glow combination study in OCI-Ly3 cells; assay type: cell-based; settings: in combination with ibrutinib; FIG. 7
Protocol: as §1, §2

OCI-LY-10 = assay: Combined drug treatment cell viability, CellTiter-Glo assay (Example 1); assay type: cell-based; settings: 3 days
Protocol: (§3) DLBCL cells at either 1×10^4 cells or 2×10^4 cells were plated onto each well of a 96-W plate (Table 1).
(§4) The stock solutions for the IDH1 inhibitor AGI5198 and the MALT1 inhibitor MI-2 were each prepared at 50 mM concentration.
(§5) The 96-W plate was then incubated for 3 days. Cell viability was examined using a CellTiter-Glo assay.
(§6) A 40 μL of CellTiter-Glo reagent was added directly into each well of the 96-W plate. The plate was then shaken on a Shaker (Labsystem Wellmix) at speed 5 for 10-20 min at room temperature. Next, 100 μL of the mixed medium was transferred to a white, non-transparent, flat bottom 96-W plate for assaying. A Flexstation 3 luminometer was used for detecting and measuring the luminescent signals. Measurements were taken at room temperature.
(§7) In general, the combination is described as synergistic (CI<1), additive (CI=1), or antagonistic (CI>1). Synergism is further separated into very strong synergism (<0.1), strong synergism (0.1-0.3), synergism (0.3-0.7), moderate synergism (0.7-0.85), and slight synergism (0.85-0.9).

OCI-LY-3 = assay: as above; assay type: cell-based; settings: 3 days
Protocol: as §3, §4, §5, §6, §7

SU-DHL-2 = assay: as above; assay type: cell-based; settings: 3 days
Protocol: as §3, §4, §5, §6, §7

TMD8 = assay: as above; assay type: cell-based; settings: 3 days
Protocol: as §3, §4, §5, §6, §7

U2932 = assay: as above; assay type: cell-based; settings: 3 days
Protocol: as §3, §4, §5, §6, §7

CARD11 / NF-κB pathway = assay: Western blot analysis, Jeko cells containing CARD11 L225LI (mut10); assay type: cell-based; settings: FIG. 8
Protocol: The cell lysates were prepared from the cells which were treated with different concentrations of inhibitors for overnight incubation. Antibodies that correlate to the proteins of interest were used for detection.

[1] = ibrutinib 0 nM, IDH1i 10 uM / MALT1i 5 uM alone
[2] = ibrutinib 0.0256 nM, IDH1i 10 uM / MALT1i 5 uM / medium alone
[3] = ibrutinib 0.128 nM, IDH1i 10 uM / MALT1i 5 uM / medium alone
[4] = ibrutinib 0.64 nM, IDH1i 10 uM / MALT1i 5 uM / medium alone
[5] = ibrutinib 3.2 nM, IDH1i 10 uM / MALT1i 5 uM / medium alone
[6] = ibrutinib 16 nM, IDH1i 10 uM / MALT1i 5 uM / medium alone
[7] = ibrutinib 80 nM, IDH1i 10 uM / MALT1i 5 uM / medium alone
[8] = ibrutinib 400 nM, IDH1i 10 uM / MALT1i 5 uM / medium alone
[9] = ibrutinib 2000 nM, IDH1i 10 uM / MALT1i 5 uM / medium alone
[10] = ibrutinib 10000 nM, IDH1i 10 uM / MALT1i 5 uM / medium alone
[11] = ibrutinib 0 nM, IDH1i 10 uM / MALT1i 200 nM alone
[12] = ibrutinib 0.0256 nM, IDH1i 10 uM / MALT1i 200 nM / medium alone
[13] = ibrutinib 0.128 nM, IDH1i 10 uM / MALT1i 200 nM / medium alone
[14] = ibrutinib 0.64 nM, IDH1i 10 uM / MALT1i 200 nM / medium alone
[15] = ibrutinib 3.2 nM, IDH1i 10 uM / MALT1i 200 nM / medium alone
[16] = ibrutinib 16 nM, IDH1i 10 uM / MALT1i 200 nM / medium alone
[17] = ibrutinib 80 nM, IDH1i 10 uM / MALT1i 200 nM / medium alone
[18] = ibrutinib 400 nM, IDH1i 10 uM / MALT1i 200 nM / medium alone
[19] = ibrutinib 2000 nM, IDH1i 10 uM / MALT1i 200 nM / medium alone
[20] = ibrutinib 10000 nM, IDH1i 10 uM / MALT1i 200 nM / medium alone

For Z-VRPR-FMK, the “effect on ABC-DLBCL cells” value (ABC-DLBCL cells) is given as “exerts toxic effects”.

For `CC(C)C[C@H](NC(=O)[C@H](CCc1ccccc1)NC(=O)CN1CCOCC1)C(=O)N[C@@H](Cc1ccccc1)C(=O)N[C@@H](CC(C)C)C(=O)[C@@]1(C)CO1` [Carfilzomib], the “sensitization of Jeko cells containing the mutant CARD11 to ibrutinib treatment” value (Jeko cells) was “sensitized” and the “sensitization of OCI-Ly3 cells” value (OCI-Ly3 cells) was “sensitized”.

For `COCCOc1nc(-c2ccc(Cl)c(Cl)c2)n(-c2ccc(NC(=O)CCl)cc2)n1` [MI-2], the “luminescence (CellTiter-Glo)” value (OCI-LY-10; [1]) was 19317.19, the “luminescence (CellTiter-Glo)” value (OCI-LY-10; [2]) was 21817.96 and the “luminescence (CellTiter-Glo)” value (OCI-LY-10; [3]) was 17802.53. For the same compound, the “luminescence (CellTiter-Glo)” value (OCI-LY-10; [4]) was 16971.57, the “luminescence (CellTiter-Glo)” value (OCI-LY-10; [5]) was 13413.69 and the “luminescence (CellTiter-Glo)” value (OCI-LY-10; [6]) was 7749.49. The “luminescence (CellTiter-Glo)” value (OCI-LY-10; [7]) was 9592.85, the “luminescence (CellTiter-Glo)” value (OCI-LY-10; [8]) was 9064.30 and the “luminescence (CellTiter-Glo)” value (OCI-LY-10; [9]) was 10110.89. The “luminescence (CellTiter-Glo)” value (OCI-LY-10; [10]) was 9734.85, the “luminescence (CellTiter-Glo)” value (OCI-LY-3; [1]) was 23290.74 and the “luminescence (CellTiter-Glo)” value (OCI-LY-3; [2]) was 25371.59. The “luminescence (CellTiter-Glo)” value (OCI-LY-3; [3]) was 26368.71, the “luminescence (CellTiter-Glo)” value (OCI-LY-3; [4]) was 24778.56 and the “luminescence (CellTiter-Glo)” value (OCI-LY-3; [5]) was 26610.12. For the same compound, the “luminescence (CellTiter-Glo)” value (OCI-LY-3; [6]) was 27654.48, the “luminescence (CellTiter-Glo)” value (OCI-LY-3; [7]) was 27617.74 and the “luminescence (CellTiter-Glo)” value (OCI-LY-3; [8]) was 25227.27. The “luminescence (CellTiter-Glo)” value (OCI-LY-3; [9]) was 26843.66, the “luminescence (CellTiter-Glo)” value (OCI-LY-3; [10]) was 23784.06 and the “luminescence (CellTiter-Glo)” value (SU-DHL-2; [11]) was 131429.7. The “luminescence (CellTiter-Glo)” value (SU-DHL-2; [12]) was 127667.9, the “luminescence (CellTiter-Glo)” value (SU-DHL-2; [13]) was 145168.7 and the “luminescence (CellTiter-Glo)” value (SU-DHL-2; [14]) was 148058.4. For the same compound, the “luminescence (CellTiter-Glo)” value (SU-DHL-2; [15]) was 156036.5, the “luminescence (CellTiter-Glo)” value (SU-DHL-2; [16]) was 153735.3 and the “luminescence (CellTiter-Glo)” value (SU-DHL-2; [17]) was 154662.6. The “luminescence (CellTiter-Glo)” value (SU-DHL-2; [18]) was 152400.8, the “luminescence (CellTiter-Glo)” value (SU-DHL-2; [19]) was 151552.3 and the “luminescence (CellTiter-Glo)” value (SU-DHL-2; [20]) was 61725.8. For the same compound, the “luminescence (CellTiter-Glo)” value (TMD8; ibrutinib 0 nM, IDH1i 10 uM / MALT1i 100 nM alone) was 71955.73, the “luminescence (CellTiter-Glo)” value (TMD8; ibrutinib 0.0256 nM, IDH1i 10 uM / MALT1i 100 nM / medium alone) was 26784.40 and the “luminescence (CellTiter-Glo)” value (TMD8; ibrutinib 0.128 nM, IDH1i 10 uM / MALT1i 100 nM / medium alone) was 23958.89. The “luminescence (CellTiter-Glo)” value (TMD8; ibrutinib 0.64 nM, IDH1i 10 uM / MALT1i 100 nM / medium alone) was 25405.91, the “luminescence (CellTiter-Glo)” value (TMD8; ibrutinib 3.2 nM, IDH1i 10 uM / MALT1i 100 nM / medium alone) was 24014.24 and the “luminescence (CellTiter-Glo)” value (TMD8; ibrutinib 16 nM, IDH1i 10 uM / MALT1i 100 nM / medium alone) was 22888.78. For the same compound, the “luminescence (CellTiter-Glo)” value (TMD8; ibrutinib 80 nM, IDH1i 10 uM / MALT1i 100 nM / medium alone) was 22045.34, the “luminescence (CellTiter-Glo)” value (TMD8; ibrutinib 400 nM, IDH1i 10 uM / MALT1i 100 nM / medium alone) was 21591.99 and the “luminescence (CellTiter-Glo)” value (TMD8; ibrutinib 2000 nM, IDH1i 10 uM / MALT1i 100 nM / medium alone) was 21278.34. For the same compound, the “luminescence (CellTiter-Glo)” value (TMD8; ibrutinib 10000 nM, IDH1i 10 uM / MALT1i 100 nM / medium alone) was 9754.88, the “luminescence (CellTiter-Glo)” value (U2932; [11]) was 54720.82 and the “luminescence (CellTiter-Glo)” value (U2932; [12]) was 48183.41. For the same compound, the “luminescence (CellTiter-Glo)” value (U2932; [13]) was 46995.03, the “luminescence (CellTiter-Glo)” value (U2932; [14]) was 49419.22 and the “luminescence (CellTiter-Glo)” value (U2932; [15]) was 48821.08. The “luminescence (CellTiter-Glo)” value (U2932; [16]) was 44565.57, the “luminescence (CellTiter-Glo)” value (U2932; [17]) was 47234.82 and the “luminescence (CellTiter-Glo)” value (U2932; [18]) was 41263.93. For the same compound, the “luminescence (CellTiter-Glo)” value (U2932; [19]) was 45695.98, the “luminescence (CellTiter-Glo)” value (U2932; [20]) was 31838.57 and the “sensitization of Jeko cells containing the mutant CARD11 to ibrutinib treatment” value (Jeko cells) was “sensitized”. For the same compound, the “effect on NF-κB pathway together with ibrutinib” value (CARD11 / NF-κB pathway) was “in some instances synergize with ibrutinib to inhibit the NF-κB pathway” and the “effect on CARD11 protein” value (CARD11 / NF-κB pathway; overnight incubation) was “cause degradation of CARD11”.
